For data set [1], the system named is ZEAMX. Kind of data set: Cold stress test on crop plants in greenhouse, spray application. The data set is classed as in vivo, Zea mays. The following applies: dosage 250 g/ha, efficacy = percentage reduction in intensity of damage, mean of three results. The procedure:
Seeds of monocotyledonous and dicotyledonous crop plants were laid out in sandy loam in wood-fiber pots, covered with soil and cultivated in a greenhouse under good growth conditions. The test plants were treated at the early leaf stage (BBCH10-BBCH13). To ensure uniform water supply before commencement of stress, the potted plants were supplied with the maximum amount of water immediately beforehand by dam irrigation and, after application, transferred in plastic inserts in order to prevent subsequent, excessively rapid drying. The inventive compounds, formulated in the form of wettable powders (WP), wettable granules (WG), suspension concentrates (SC) or emulsion concentrates (EC), were sprayed onto the green parts of the plants as an aqueous suspension at an equivalent water application rate of 600 l/ha with addition of 0.2% wetting agent (agrotin). Substance application is followed immediately by stress treatment of the plants (cold or drought stress). For cold stress treatment, the plants were kept under the following controlled conditions: • “day”: 12 hours with illumination at 8° C. • “night”: 12 hours without illumination at 1° C. The duration of the respective stress phases was guided mainly by the state of the untreated (=treated with blank formulation without test compound), stressed control plants and thus varied from crop to crop. It was ended (by re-irrigating or transfer to a greenhouse with good growth conditions) as soon as irreversible damage was observed on the untreated, stressed control plants. In the case of dicotyledonous crops, for example oilseed rape and soybeans, the duration of the drought stress phase varied between 3 and 5 days, in the case of monocotyledonous crops, for example wheat, barley or corn, between 6 and 10 days. The duration of the cold stress phase varied between 12 and 14 days. The end of the stress phase was followed by an approx. 5-7-day recovery phase, during which the plants were once again kept under good growth conditions in a greenhouse. In order to rule out any influence of the effects observed by any fungicidal action of the test compounds, it was additionally ensured that the tests proceeded without fungal infection and without infection pressure. After the recovery phase had ended, the intensities of damage were rated in visual comparison to untreated, unstressed controls of the same age (in the case of drought stress) or the same growth stage (in the case of cold stress). The intensity of damage was first assessed as a percentage (100%=plants have died, 0%=like control plants). These values were then used to calculate the efficacy of the test compounds (=percentage reduction in the intensity of damage as a result of substance application) by the following formula: [formula] EF: efficacy (%) DVus: damage value of the untreated, stressed control DVts: damage value of the plants treated with test compound The tables A-1 and B-1 to B-4 below list mean values in each case from three results of the same test. Efficacies of selected compounds of the formula (I) under cold stress using the example of ZEAMX: […]

Data set [2] has as its system BRSNS. The data set is described as follows: Drought stress test on crop plants in greenhouse, spray application. The data set is classed as in vivo, Brassica napes. The following applies: dosage 25 g/ha, efficacy = percentage reduction in intensity of damage, mean of three results. Here is the method:
(§1) Seeds of monocotyledonous and dicotyledonous crop plants were laid out in sandy loam in wood-fiber pots, covered with soil and cultivated in a greenhouse under good growth conditions. The test plants were treated at the early leaf stage (BBCH10-BBCH13). To ensure uniform water supply before commencement of stress, the potted plants were supplied with the maximum amount of water immediately beforehand by dam irrigation and, after application, transferred in plastic inserts in order to prevent subsequent, excessively rapid drying. The inventive compounds, formulated in the form of wettable powders (WP), wettable granules (WG), suspension concentrates (SC) or emulsion concentrates (EC), were sprayed onto the green parts of the plants as an aqueous suspension at an equivalent water application rate of 600 l/ha with addition of 0.2% wetting agent (agrotin). Substance application is followed immediately by stress treatment of the plants (cold or drought stress). For cold stress treatment, the plants were kept under the following controlled conditions: • “day”: 12 hours with illumination at 8° C. • “night”: 12 hours without illumination at 1° C.
(§2) Drought stress was induced by gradual drying out under the following conditions: • “day”: 14 hours with illumination at 26° C. • “night”: 10 hours without illumination at 18° C.
(§3) The duration of the respective stress phases was guided mainly by the state of the untreated (=treated with blank formulation without test compound), stressed control plants and thus varied from crop to crop. It was ended (by re-irrigating or transfer to a greenhouse with good growth conditions) as soon as irreversible damage was observed on the untreated, stressed control plants. In the case of dicotyledonous crops, for example oilseed rape and soybeans, the duration of the drought stress phase varied between 3 and 5 days, in the case of monocotyledonous crops, for example wheat, barley or corn, between 6 and 10 days. The duration of the cold stress phase varied between 12 and 14 days.
(§4) The end of the stress phase was followed by an approx. 5-7-day recovery phase, during which the plants were once again kept under good growth conditions in a greenhouse. In order to rule out any influence of the effects observed by any fungicidal action of the test compounds, it was additionally ensured that the tests proceeded without fungal infection and without infection pressure.
(§5) After the recovery phase had ended, the intensities of damage were rated in visual comparison to untreated, unstressed controls of the same age (in the case of drought stress) or the same growth stage (in the case of cold stress). The intensity of damage was first assessed as a percentage (100%=plants have died, 0%=like control plants). These values were then used to calculate the efficacy of the test compounds (=percentage reduction in the intensity of damage as a result of substance application) by the following formula:
(§6) [formula] EF: efficacy (%) DVus: damage value of the untreated, stressed control DVts: damage value of the plants treated with test compound
(§7) The tables A-1 and B-1 to B-4 below list mean values in each case from three results of the same test.
(§8) Efficacies of selected compounds of the formula (I) under drought stress using the examples of HORVS, BRSNS, ZEAMX und TRZAS: […]

In data set [3] the test system is ZEAMX. The data set is described as above. The data set is classed as in vivo, Zea mays. The following applies: dosage 250 g/ha, efficacy = percentage reduction in intensity of damage, mean of three results. Here is the method: as §1, §2, §3, §4, §5, §6, §7, §8
Data set [4] deals with TRZAS. Described as above. The data set is classed as in vivo, Triticum aestivum. The following applies: dosage 25 g/ha, efficacy = percentage reduction in intensity of damage, mean of three results. Here is the method:
as §1, §2, §3, §4, §5, §6, §7, §8

Data set [5] has as its system HORVS. The description is as above. The data set is classed as in vivo, Hordeum vulgare. The following applies: dosage 500 g/ha, efficacy = percentage reduction in intensity of damage, mean of three results. The procedure:
Seeds of monocotyledonous and dicotyledonous crop plants were laid out in sandy loam in wood-fiber pots, covered with soil and cultivated in a greenhouse under good growth conditions. The test plants were treated at the early leaf stage (BBCH10-BBCH13). To ensure uniform water supply before commencement of stress, the potted plants were supplied with the maximum amount of water immediately beforehand by dam irrigation and, after application, transferred in plastic inserts in order to prevent subsequent, excessively rapid drying. The inventive compounds, formulated in the form of wettable powders (WP), wettable granules (WG), suspension concentrates (SC) or emulsion concentrates (EC), were sprayed onto the green parts of the plants as an aqueous suspension at an equivalent water application rate of 600 l/ha with addition of 0.2% wetting agent (agrotin). Substance application is followed immediately by stress treatment of the plants (cold or drought stress). […]
After the recovery phase had ended, the intensities of damage were rated in visual comparison to untreated, unstressed controls of the same age (in the case of drought stress) or the same growth stage (in the case of cold stress). The intensity of damage was first assessed as a percentage (100%=plants have died, 0%=like control plants). […]

By melting point is commonly meant the temperature of the solid-liquid transition. Turning to `Cc1ccc(-c2nc3c(C)cccc3c(=O)[nH]2)c(Cl)c1` [I.1-505, 2-(2-Chloro-4-methylphenyl)-8-methylquinazolin-4(3H)-one], the melting point came to 234 °C.

Compound `O=C1NC(c2ccc(Cl)cc2)Nc2ccccc21` (stereo not shown) [I.4-71, 2-(4-Chlorophenyl)-2,3-dihydroquinazolin-4(1H)-one] had a melting point of 190 °C.

With `NC(=O)c1cnn2c1[nH]c(=O)c1ccccc12` [I.3-31], the “EF (ZEAMX)” value in data set [1] and in data set [3] was greater than 5% each time. For the same compound, the “EF (BRSNS)” value in data set [2] is reported as greater than 5%. Moreover, the “EF (TRZAS)” value in data set [4] is reported as greater than 5%.

As to `Cc1nc2c([N+](=O)[O-])cccc2c(=O)[nH]1` [I.1-32], in data set [5], the “EF (HORVS)” value was greater than 5%.

The values above are taken from patent US9006265B2, “Substituted fused pyrimidinones and dihydropyrimidinones” (Bayer Intellectual Property GmbH, priority 2010, dated 2015).
